Assays:
Nur77-LBD = target: T1, Nur77-LBD (Homo sapiens, UniProt P22736); experiment: Circular dichroism (CD) binding to Nur77-LBD; conditions: purified Nur77-LBD, spectra changed at 50° C. and above (FIG. 9)
T1 construct: Protein spectra of purified Nur77-LBD at temperature 50° C. and above changed substantially; His (N); made in house
Description: Stock solutions of 100 mM test compound in ethanol were added to 0.5 ml of 1 μM purified His-proteins in PBS, pH 7.6. CD spectra were obtained in a 0.2 cm path length cell at temperature between 25° C. to 65° C. by using an AVIV 62 DS spectropolarimeter for a wavelength range at 220 nm. Three spectra were corrected for background and averaged for each sample. The Kd was determined using nonlinear regression analysis for a one-site binding model (χ2>0.98).

pBind-RXRa-LBD and Nur77 = experiment: Mammalian one hybrid assay, Gal4-RXRa-LBD with Nur77; assay type: cell-based; conditions: cotransfection of pBind-RXRa-LBD and Nur77, Dual-Luciferase (FIG. 10)
Description: HEK293T cells were co-transfected with pG5 Luciferase reporter together with the plasmid encoding RXRa-LBD fused with the Gal4 DNA-binding domain and other expression plasmids. After transfection, cells were treated with DMSO or a test compound, and assayed by using the Dual-Luciferase Reporter Assay System (Promega). Transfection efficiency was normalized to Renilla luciferase activity.
To exclude the possibility that Compound 1 acted on RXRa, Glu453 and Glu456 in the RXRa activation function 2 (AF2) region were substituted with Ala and the resulting mutant, RXRa-LBD/E453,6A, was used.

[1] = tested on: MDA-MB-231 breast cancer cells; experiment: Mitochondrial membrane potential (JC-1), MDA-MB-231; assay type: cell-based; conditions: MDA-MB-231 cells, 1 μM, 6 h
Description: Loss of mitochondrial membrane potential (Avm) represents one of the hallmarks of apoptosis. A JC-1 probe was employed to measure mitochondrial depolarization in cancer cells. MDA-MB-231 breast cancer cells were treated with different concentration of test compounds for 6 hours. JC-1 staining solution (5 μg/ml) was added at 37° C. for 20 min. After washing with PBS twice, mitochondrial membrane potentials were monitored by determining the relative amounts of dual emission from a multiple fluorescence reader. The fluorescence in cells was quantitatively analyzed by flow cytometry. Mitochondrial depolarization is depicted by an increase in the green/red fluorescence intensity ratio. ROS were monitored with the oxiadtion-senstive fluorescent probe 2′7′-dichlorodihydroflurescenin diacetate (DCF-DA).
In healthy cells with high Δψwm, JC-1 forms complexes with intense red fluorescence. However, in cells with low Δψm, JC-1 remains in the monomeric form with green fluorescence. Mitochondrial depolarization is depicted by an increase in the green/red fluorescence intensity ratio.

T1 sequence (P22736 360-595 limits assumed): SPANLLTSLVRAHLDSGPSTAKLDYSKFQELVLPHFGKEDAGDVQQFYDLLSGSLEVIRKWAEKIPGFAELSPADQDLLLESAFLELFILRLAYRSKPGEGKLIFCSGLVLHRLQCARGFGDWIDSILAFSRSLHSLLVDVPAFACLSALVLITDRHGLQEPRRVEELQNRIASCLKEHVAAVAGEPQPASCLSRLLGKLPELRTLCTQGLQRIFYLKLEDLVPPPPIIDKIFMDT

binding to Nur77-LBD (CD spectra) (Nur77-LBD): direct binding
Structure (SMILES): FC(F)(F)c1ccc([C+](c2c[nH]c3ccccc23)c2c[nH]c3ccccc23)cc1 [Compound 1, Bis(1H-indol-3-yl)(4-(trifluoromethyl)phenyl)methylium methanesulfonate]
reporter transcriptional activity (pBind-RXRa-LBD and Nur77): dose dependently induced the reporter activity
JC-1 green to red ratio (control 100%) [1]: 345%

Source: US20210024499A1, “OXIDIZED BIS(3-INDOLYL)METHANES AND USES THEREOF” (Sanford Burnam Prebys Medical Discovery Institute, priority 2018, published 2021)
